Laboratory results from ChEMBL document CHEMBL1221333, “Design, synthesis, and biological evaluation of conformationally constrained glycerol 3-phosphate acyltransferase inhibitors” (Bioorg Med Chem, 2010).

Assays:
[1] = Inhibition of GPAT at 40 ug/ml
[2] = Inhibition of GPAT

Structure (SMILES)	inhibition [1] [%]	IC50 [2] [µM]
CCCCCCCCS(=O)(=O)N[C@@H]1CC[C@H](CC(=O)O)[C@H]1O (racemic)	16	–
CCCCCCCCS(=O)(=O)N[C@H]1CCC[C@H](CC(=O)O)[C@H]1O (racemic)	2	–
CCCCCCCCS(=O)(=O)N[C@H]1CC[C@H](C(=O)O)[C@@H]1O (racemic)	3	324
CCCCCCCCS(=O)(=O)N[C@H]1[C@H](O)CC[C@H]1C(=O)O (racemic)	15	–
CCCCCCCCS(=O)(=O)N[C@H]1CCC[C@H](CC(=O)O)[C@@H]1O (racemic)	23	–
CCCCCCCCS(=O)(=O)N[C@H]1CC[C@H](C(=O)O)[C@H]1O (racemic)	19	–
CCCCCCCCS(=O)(=O)N[C@H]1CCC[C@H](C(=O)O)[C@H]1O (racemic)	36	164
CCCCCCCCS(=O)(=O)N[C@@H]1CCC[C@H](CC(=O)O)[C@H]1O (racemic)	17	–
CCCCCCCCS(=O)(=O)N[C@H]1CC[C@H](CC(=O)O)[C@@H]1O (racemic)	8	–
CCCCCCCCS(=O)(=O)N[C@@H]1[C@@H](O)CC[C@H]1C(=O)O (racemic)	12	–
CCCCCCCCS(=O)(=O)N[C@H]1CCC[C@H](C(=O)O)[C@@H]1O (racemic)	15	–
CCCCCCCCS(=O)(=O)N[C@H]1CC[C@H](CC(=O)O)[C@H]1O (racemic)	8	295
CCCCCCCCS(=O)(=O)N[C@@H]1CC[C@H](C(=O)O)[C@H]1O (racemic)	25	255
CCCCCCCCCS(=O)(=O)Nc1ccccc1C(=O)O	97	24.7
CCCCCCCCS(=O)(=O)N[C@@H]1CCC[C@H](C(=O)O)[C@H]1O (racemic)	17	–
